Data as given in a melting point compilation (Tetko et al.).

melting point [°C]	Compound
209 to 211	CN1Cc2cc(Br)ccc2NC1=O
76 to 78	CC(N)c1ccccc1-c1ccccc1 (stereo unspecified)
116 to 118	O=C(O)c1ncccc1OCC(F)(F)F
151 to 153	CC(=NO)c1ccc(OCc2ccc(F)cc2)cc1
196 to 198	CS(=O)(=O)c1ccc(C(N)=NO)cc1
122 to 124	Brc1cnc(NCc2ccncc2)nc1
168 to 170	Cn1cc(Cl)cc1C(=O)NN
239 to 241	CC(Cn1ccnc1)NC(=O)C1(N)CCCC1 (stereo unspecified)
219 to 221	O=C(CCl)Nc1nnc(-c2ccccc2)o1
98 to 102	O=C(O)Cc1cc(=O)n(-c2ccccc2)[nH]1
293 to 295	O=C(O)c1ccc(Br)cc1-n1cncn1
138 to 140	O=C(O)c1sccc1S(=O)(=O)NCc1cccs1
225 to 229	Cc1ccn2cc(C(=O)O)nc2c1
199 to 201	Cc1ccc(S)nc1
147 to 151	NNc1ccc2ccccc2n1
144 to 146	CC(Cl)C(=O)Nc1ccccc1Cc1ccccc1 (stereo unspecified)
68 to 70	OCc1ccc(Oc2ccc(Br)cc2)c(F)c1
84 to 86	O=C(O)c1ccccc1OCCOc1ccccc1
189 to 191	O=c1[nH]c2cc(Br)cc(Cl)c2o1
115 to 117	CCOc1ccccc1C(N)=S
141 to 143	CCOC(=O)/C(C#N)=C\Nc1ccc(Cl)cc1
188 to 190	CC1CN(S(=O)(=O)c2cccc(C(=O)O)c2)CC(C)O1 (stereo unspecified)
114 to 116	CSc1ccc(C=NO)cc1
289 to 291	O=C(O)c1cc(-c2ccc(-c3ccccc3)cc2)nc2ccccc12

melting point [°C]	Compound
232 to 234	Nc1nnc(-c2ccc(F)cc2F)o1
152 to 154	N#Cc1cccnc1Oc1ccc(N)cc1
82 to 84	CCS(=O)(=O)Nc1ccc(S(=O)(=O)Cl)c(C)c1
228 to 230	NNC(=O)c1ccc(-n2cnnn2)cc1
196 to 198	COc1ccc(CC2(C)NC(=O)NC2=O)cc1 (stereo unspecified)
201 to 203	Clc1ccc2nnc(-c3ccccc3)n2n1
144 to 146	c1ccc(Nc2nnns2)cc1
194 to 196	Nc1ncc(-c2ccc(Br)cc2)[nH]1
148 to 150	Nc1nc2cc(Br)ccc2[nH]1
132 to 134	COc1ccc(Br)cc1CC(=O)O
161 to 163	Nc1nnc(SCC2COc3ccccc3O2)s1 (stereo unspecified)
85 to 90	Cc1ccc(-c2cc(C(=O)NN)c3ccccc3n2)cc1
238 to 240	O=C(O)c1cn(-c2ccccc2)nc1-c1cccnc1
139 to 141	CCCCc1ccc(N2CC(C(=O)O)CC2=O)cc1 (stereo unspecified)
229 to 231	O=C(O)Cn1nc2n(c1=O)CCCCC2
169 to 171	O=Cc1cc2c(cc1[N+](=O)[O-])OCCO2
138 to 140	O=C(O)c1ccc(=O)n(CCOc2ccccc2)n1
114 to 116	Nc1ccccc1S(=O)(=O)N1CCOCC1
44 to 46	CC(C)(C)OC(=O)NCCCCCCC(=O)O
291 to 293	NC(=O)c1ccc(CSc2ncccc2C(=O)O)cc1
107 to 109	O=C(CC(=O)c1ccccc1)Nc1ccccc1
177 to 181	O=C(O)c1nc(-c2ccccc2)n(-c2ccccc2)n1
239 to 241	O=C(O)C1CS(=O)(=O)c2ccccc2O1 (stereo unspecified)
171 to 173	COC(=O)c1cc2c(C=O)ccc(OC)c2o1

melting point [°C]	Compound
71 to 73	O=C(CCl)Nc1cc(C(F)(F)F)ccc1Cl
153 to 155	CC(C)c1oc(-c2ccccc2)nc1C(=O)O
162 to 164	O=C1/C(=C\C=C\c2ccco2)CCC/C1=C\C=C\c1ccco1
92 to 94	O=Cc1ccc(-c2ccc(Cl)cc2[N+](=O)[O-])o1
205 to 207	COc1ccc(Cn2ncc3cc(C(=O)O)cnc32)c(OC)c1
68 to 70	CC(NC(=S)NN)C1CC1 (stereo unspecified)
152 to 154	CN(C(=O)c1ccc(Cl)cc1)c1ccc(N)cc1
53 to 55	O=S(=O)(Cl)c1ccc(CCCl)cc1
190 to 200	O=C(O)CNC(=O)c1ccc(N2CCCC2=O)cc1
95 to 97	S=C1NCCO1
166 to 168	Cc1ccc(C(=O)c2ccccc2C(=O)O)cc1C
167 to 169	COc1ccc(-c2[nH]c3ccccc3c2CCC(=O)O)c(OC)c1
164 to 166	O=C(Nc1cccc(O)c1)c1ccco1
163 to 165	Nc1ccccc1-c1ccc(-c2ccccc2)cc1
149 to 151	O=C(CO)Nc1ccc(Oc2ccccc2)cc1
215 to 217	NC(=NO)c1ccc2c(c1)CCO2
215 to 217	O=C(O)c1cnc(-c2ccc3c(c2)CCO3)s1
309 to 311	O=c1[nH]cnc2cc(N3CCOCC3)c([N+](=O)[O-])cc12
103 to 105	C#CCn1c2ccccc2c2ccccc21
154 to 156	O=C(O)C1CCN(c2ccc(F)c(F)c2)C1=O (stereo unspecified)
124 to 126	O=C(CCl)NCC(=O)c1ccccc1
52 to 54	Cc1ncc(CO)c(C)n1
106 to 108	CCCOc1ccc(OCC(=O)O)cc1
139 to 141	Nc1nc(CCl)nc(Nc2ccccc2)n1

melting point [°C]	Compound
196 to 198	NS(=O)(=O)c1ccc(OCCSCC(=O)O)cc1
228 to 230	O=C(O)c1cccnc1Sc1ccc2c(c1)OCCO2
161 to 163	Cn1c(Cl)nnc1-c1ccc(Cl)cc1Cl
180 to 182	CC1CCc2c(sc3nc(CCl)[nH]c(=O)c23)C1 (stereo unspecified)
119 to 121	COc1ccc2[nH]c3c(c2c1)CCC3
168 to 170	CCOC(=O)/C(C#N)=C\Nc1ccc(F)cc1Cl
109 to 111	OC(CC1COCCN1)c1cccs1 (stereo unspecified)
147 to 149	NS(=O)(=O)N1CCN(Cc2ccccc2)CC1
139 to 141	Cc1cc(Br)cc(C)c1NC(=O)CCCCl
53 to 55	CCNC(=O)NCCO
48 to 50	COc1ccc(C(=O)CCl)c(OC)c1
144 to 146	Cn1c(S)nnc1-c1ccccc1Cl
219 to 221	O=C(O)CNc1ncnc2ccccc12
137 to 139	FC(F)(F)Cc1nnc2ccc(Cl)nn12
169 to 171	O=C(O)c1c(-n2cccc2)sc2c1CCSC2
78 to 80	CC(=O)Nc1cccc(S(=O)(=O)Cl)c1
122 to 124	CNc1cc(-c2ccc(OC)cc2)[nH]n1
171 to 173	O=C(O)CCNc1nccs1
145 to 147	O=C(O)C(Cc1ccccc1Br)Cc1ccccc1Br
102 to 104	Cc1ccc(-c2csc(N)n2)o1
83 to 85	CC(=O)CC(=O)Nc1cccnc1Cl
161 to 163	Nc1ccc(Cl)c(S(N)(=O)=O)c1
112 to 114	Cc1ccc(-n2nnnc2S)cc1
237 to 239	Cn1c(S)nnc1CC1CCS(=O)(=O)C1 (stereo unspecified)

Compound	melting point [°C]
NNc1c([N+](=O)[O-])cc(C(F)(F)F)cc1[N+](=O)[O-]	129 to 131
CCC(=O)NNC(=O)C(C)Cl (stereo unspecified)	157 to 159
O=C1CNC2CCCCC2N1 (stereo unspecified)	121 to 123
Cc1ccc2c(C3=CCNCC3)c[nH]c2c1	178 to 180
Nc1nsc(N2CCNCC2)n1	193 to 195
